The target in assay [1] is T1, human α5β3γ2L GABAA receptors in HEK293 cells (Homo sapiens, UniProt P18507+P31644).
T1 construct: expressed in transfected cells
The experiment in a line: In vitro electrophysiological recording assay (α5-GABAAR relative efficacy), SyncroPatch. Type of assay: cell-based. The note with it: Conc 0.1 μM; GABA EC10-20. The source says: Mouse L(tk^−) cells stably expressing human α1β3γ2, α2β3γ2, α3β3γ2, α5β3γ2 GABAARs generated by transfection of the individual subunits in the dexamethasone-inducible expression vector pMSGneo in mouse L(tk^−) cells (Hadingham et al., 1993, Mol. Pharmacol. 43:970-975 and 1993, Mol. Pharmacol. 44:1211-1218) were used for binding and functional assays. For certain compounds, HEK293 cells stable expressing the human α1β3γ2L, α2β3γ2L, α3β3γ2L and α5β3γ2L GABAA receptors were used to evaluate their functional effects in a SyncroPatch electrophysiology assay.
The efficacy of modulators was evaluated using either the automated patch-clamp platform QPatch16 (Sophion, Copenhagen, Denmark) or the SyncroPatch 384i (Nanion Technologies, Germany). Cells were harvested from flasks by enzymatic dissociation and re-suspended in serum-free medium.
For the Syncropatch recordings, a stacked addition protocol was used, in which GABA was rapidly applied and then washed off from the cell. All experiments were carried out at room temperature (20-22° C.) using a standard whole cell procedure. The currents recorded were acquired at 2 kHz and filtered using a Bessel filter. Whole-cell currents were measured at a holding potential of −80 mV.
For Syncropatch recordings, the extracellular recording solution contained: 140 mM NaCl, 4 mM KCl, 2 mM CaCl2), 1 mM MgCl2, 10 mM HEPES, 5 mM glucose (pH 7.4 and osmolarity of c. 300-310 mOsm/L). The intracellular recording solution contained: 90 mM KCl, 50 mM KF, 1.5 mM MgCl2, 11.1 mM EGTA and 10 mM HEPES (pH 7.2 and osmolarity of c. 300 mOsm/L). 2 mM of NaATP was added to the intracellular solution on the day of testing.
The effects of modulators were evaluated in the presence of a submaximal GABA concentration, giving typically 10-20% activation (GABA EC10-20) of the response elicited by a saturating GABA concentration. For QPatch recordings, to check and ensure baseline current stability before compound addition, five consecutive applications of GABA EC10-20 alone (each application with a 2 s duration, separated by minimum 1 min wash off periods) were performed before compound addition. The test compound was applied using the pipetting system of the QPatch system 1 min at least prior to co-application with GABA EC10-20. For SyncroPatch recordings, GABA EC20 alone was applied three times (1 s long applications, with wash steps in-between) before compound addition. This was followed by a 1-2 min pre-incubation with the test compound and then re-application of GABA EC10-20 in the presence of the compound. Finally, following a further wash step, a saturating concentration of GABA was applied, allowing the accurate evaluation for each cell of the percentage baseline activation elicited by the submaximal GABA applied.
The compounds were first dissolved in DMSO as a 10 mM stock and then further diluted to the testing concentrations so that the final DMSO concentration in the extracellular recording solution was kept constant at 0.1% for the QPatch recordings, or 0.2% for the SyncroPatch recordings.
The % efficacy of modulators was determined from the GABA elicited currents recorded in the presence and absence of the test compound, using the formula:
[((compound peak current−leak)−(GABA peak current−leak))/(GABA peak current−leak)]*100,
where ‘leak’ is the leak baseline current at −65 mV, ‘compound peak current’ is the current elicited by co-application of compound and GABA, and ‘GABA peak current’ is the current elicited by GABA alone during the 5th GABA application. The results were presented as ‘relative efficacy’ for each compound generally at a concentration equal or higher than 100 times their determined Ki. The relative efficacy of a compound was calculated by normalising its efficacy to the efficacy of methyl-6,7-dimethoxy-4-ethyl-beta-carboline-3-carboxylate (DMCM) that was separately determined produced an attenuation of GABA-induced currents of −57±4%, n=5.

Assay [2] concerns the target T2, human recombinant GABAAR containing α5β3γ2 subunits (benzodiazepine site) (Homo sapiens, UniProt P18507+P31644).
T2 construct: expressed in transfected cells; host or cells: mouse L(tk−) cells, dexamethasone-inducible vector pMSGneo
The experiment in a line: In vitro radioligand binding assay (α5-GABAAR Ki). The note with it: inhibition of [3H]Ro15-1788 binding, membranes of L(tk−) cells expressing human α5β3γ2; read-out: α5-GABAAR Ki. The method, boiled down: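 Membranes from mouse L(tk^−) cells stably expressing human α5β3γ2 GABAAR incubated 1 h at 4° C with 4 nM [^3H]Ro15-1788 and test compound; nonspecific binding with 1 μM TP003. Filter-bound radioactivity counted; Ki from IC50 by Cheng-Prusoff using measured Kd.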

Usually Ki stands for the equilibrium dissociation constant of an inhibitor or competing ligand from its target.

T2 sequence (P31644 32-462): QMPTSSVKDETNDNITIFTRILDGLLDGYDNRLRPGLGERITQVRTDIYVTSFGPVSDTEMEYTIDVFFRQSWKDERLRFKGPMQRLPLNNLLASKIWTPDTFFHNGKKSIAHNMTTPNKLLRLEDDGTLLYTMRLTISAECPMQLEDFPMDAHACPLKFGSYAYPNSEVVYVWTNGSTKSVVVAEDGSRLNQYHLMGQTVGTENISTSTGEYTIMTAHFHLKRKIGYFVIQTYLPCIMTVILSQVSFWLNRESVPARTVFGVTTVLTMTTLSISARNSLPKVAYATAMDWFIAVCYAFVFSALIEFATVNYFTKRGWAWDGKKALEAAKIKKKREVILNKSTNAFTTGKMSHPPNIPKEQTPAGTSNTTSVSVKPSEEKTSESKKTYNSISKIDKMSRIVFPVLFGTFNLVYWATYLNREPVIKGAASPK
T2 sequence (P28472 26-473 partner): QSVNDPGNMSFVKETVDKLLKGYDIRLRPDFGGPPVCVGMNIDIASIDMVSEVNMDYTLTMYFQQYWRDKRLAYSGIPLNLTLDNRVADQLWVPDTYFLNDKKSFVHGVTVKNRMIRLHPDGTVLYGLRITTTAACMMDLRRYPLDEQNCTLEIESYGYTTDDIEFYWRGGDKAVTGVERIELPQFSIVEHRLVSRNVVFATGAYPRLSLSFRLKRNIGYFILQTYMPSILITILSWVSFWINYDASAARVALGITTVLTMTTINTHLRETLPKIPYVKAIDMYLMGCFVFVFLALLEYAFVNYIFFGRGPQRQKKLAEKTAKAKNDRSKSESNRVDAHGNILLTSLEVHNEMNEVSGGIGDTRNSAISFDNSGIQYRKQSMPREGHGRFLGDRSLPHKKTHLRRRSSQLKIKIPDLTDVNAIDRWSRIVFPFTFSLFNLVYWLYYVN
T2 sequence (P18507 40-475): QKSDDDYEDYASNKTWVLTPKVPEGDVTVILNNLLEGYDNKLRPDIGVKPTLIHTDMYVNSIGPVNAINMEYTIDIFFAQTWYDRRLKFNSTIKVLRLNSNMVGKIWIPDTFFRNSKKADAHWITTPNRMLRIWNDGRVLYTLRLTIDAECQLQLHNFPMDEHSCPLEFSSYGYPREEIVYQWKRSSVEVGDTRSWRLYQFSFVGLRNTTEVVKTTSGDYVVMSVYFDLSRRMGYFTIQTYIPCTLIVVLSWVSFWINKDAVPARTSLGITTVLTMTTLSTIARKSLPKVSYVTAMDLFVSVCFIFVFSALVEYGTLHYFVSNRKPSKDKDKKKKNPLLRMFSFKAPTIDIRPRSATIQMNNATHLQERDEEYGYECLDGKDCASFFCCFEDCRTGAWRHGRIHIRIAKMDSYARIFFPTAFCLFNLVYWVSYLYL
T1 sequence (P31644 32-462): as the sequence (P31644 32-462) above
T1 sequence (P28472 26-473 partner): as the sequence (P28472 26-473 partner) above
T1 sequence (P18507 40-475): as the sequence (P18507 40-475) above

With `COCCOc1nc(-c2cnc(N)nc2)ccc1NC(=O)c1c(-c2ccc(F)cc2)noc1C` [Example 217, N-[6-(2-Aminopyrimidin-5-yl)-2-(2-methoxyethoxy)-3-pyridyl]-3-(4-fluorophenyl)-5-methyl-isoxazole-4-carboxamide], the “α5-GABAAR Relative Efficacy (to DMCM), SyncroPatch” value (shortened to “α5-GABAAR Relative Efficacy”) in assay [1] is on record as −0.16. Moreover, in assay [2], the inhibitory constant (Ki) was 6.4 nM.
With `COc1nc(-c2cnoc2)ccc1NC(=O)c1c(-c2ccc(F)cc2)noc1C` [Example 221, 3-(4-fluorophenyl)-N-(6-(isoxazol-4-yl)-2-methoxypyridin-3-yl)-5-methylisoxazole-4-carboxamide], the “α5-GABAAR Relative Efficacy” value in assay [1] is recorded as −1.15. In assay [2], the inhibition constant (Ki) is 0.8 nM.
In the case of `Cc1onc(-c2ccc(F)cc2)c1C(=O)Nc1ccc(-c2cnc3n2CCN(C)C3)nc1OC(C)C.Cl` [Example 209, 3-(4-Fluorophenyl)-N-(2-isopropoxy-6-(7-methyl-5,6,7,8-tetrahydroimidazo[1,2-a]pyrazin-3-yl)pyridin-3-yl)-5-methylisoxazole-4-carboxamide hydrochloride], the “α5-GABAAR Relative Efficacy” value in assay [1] was −0.60. For the same compound, the Ki in assay [2] stood at 0.3 nM.
On the same counts, the results for `COc1nc(-c2ccc(CN3CC4COCC(C4)C3)nc2)ccc1NC(=O)c1c(-c2ccccc2)noc1C` [Example 232, N-(6′-((3-oxa-7-azabicyclo[3.3.1]nonan-7-yl)methyl)-6-methoxy-[2,3′-bipyridin]-5-yl)-5-methyl-3-phenylisoxazole-4-carboxamide] are −0.73 and 0.6 nM.
As for `Cc1onc(-c2ccccc2)c1C(=O)Nc1ccc(-c2cnc(N)nc2)nc1OC(C)C` [Example 214, N-[6-(2-Aminopyrimidin-5-yl)-2-isopropoxy-3-pyridyl]-5-methyl-3-phenyl-isoxazole-4-carboxamide], the “α5-GABAAR Relative Efficacy” value in assay [1] is −0.81. Besides, the Ki in assay [2] came to 0.4 nM.
As to `COc1nc(-c2ccc(CN3CC4(COC4)C3)nc2)ccc1NC(=O)c1c(-c2ccccc2)noc1C` [Example 231, N-(6′-((2-oxa-6-azaspiro[3.3]heptan-6-yl)methyl)-6-methoxy-[2,3′-bipyridin]-5-yl)-5-methyl-3-phenylisoxazole-4-carboxamide], the “α5-GABAAR Relative Efficacy” value in assay [1] is −1.00. Moreover, the Ki in assay [2] worked out at 1.3 nM.
On the same counts, the results for `Cc1onc(-c2ccc(F)cc2)c1C(=O)Nc1ccc(-c2cnc(N)nc2)nc1OC1COC1` [Example 216, N-[6-(2-Aminopyrimidin-5-yl)-2-(oxetan-3-yloxy)-3-pyridyl]-3-(4-fluorophenyl)-5-methyl-isoxazole-4-carboxamide] are −0.67 and 1.5 nM.
As to `COc1nc(-c2ccc(CN3CCOCC3)nc2)ccc1NC(=O)c1c(-c2ccccc2)noc1C` [Example 230, N-(6-methoxy-6′-(morpholinomethyl)-[2,3′-bipyridin]-5-yl)-5-methyl-3-phenyl-isoxazole-4-carboxamide], in assay [1], the “α5-GABAAR Relative Efficacy” value is listed as −1.10. Further, in assay [2], the Ki turned out to be 1.4 nM.
With `Cc1onc(-c2ccccc2)c1C(=O)Nc1ccc(-c2ccc(N)nc2)nc1OC(C)C` [Example 215, N-[6-(6-Amino-3-pyridyl)-2-isopropoxy-3-pyridyl]-5-methyl-3-phenyl-isoxazole-4-carboxamide], in assay [1], the “α5-GABAAR Relative Efficacy” value is recorded as −0.65. For the same compound, the Ki in assay [2] is 0.6 nM.
Consider `Cc1onc(-c2ccc(F)cc2)c1C(=O)Nc1ccc(-c2cnc(N)nc2)nc1OCCO` [Example 218, N-[6-(2-Aminopyrimidin-5-yl)-2-(2-hydroxyethoxy)-3-pyridyl]-3-(4-fluorophenyl)-5-methyl-isoxazole-4-carboxamide], for which, in assay [1], the “α5-GABAAR Relative Efficacy” value was −0.51. In addition, the Ki in assay [2] worked out at 19.5 nM.
As for `COc1nc(-c2cnoc2)ncc1NC(=O)c1c(-c2ccccc2)noc1C` [Example 229, N-(2-isoxazol-4-yl-4-methoxy-pyrimidin-5-yl)-5-methyl-3-phenyl-isoxazole-4-carboxamide], the “α5-GABAAR Relative Efficacy” value in assay [1] is reported as −0.79. The Ki in assay [2] is 87.4 nM.

Values taken from patent US20240425491A1, “HETEROARYL COMPOUNDS USEFUL IN THE TREATMENT OF COGNITIVE DISORDERS” (University College Cardiff Consultants Limited, priority 2021, published 2024).
